# Molecular target: ErbB2 WT (Homo sapiens (Human), UniProt P04626)
# Experiment: ErbB enzyme assay (CisBio HTRF KinEASE-TK), Assay 2
# Format: biochemical
# Settings: not given
# Method in brief: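 ErbB2 phosphorylates 250 nM biotin-TK substrate at 1 mM ATP in 25 mM HEPES pH 7.4, 10 mM MgCl2, 0.01% Triton X-100 and 2% DMSO, for 30 min at 22 °C. Product is detected by HTRF with Sa-XL665 and TK-Ab-Cryptate. Percent of control is set by DMSO-only wells and pre-quenched wells.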
# ErbB2 WT, sequence (P04626 23-1255): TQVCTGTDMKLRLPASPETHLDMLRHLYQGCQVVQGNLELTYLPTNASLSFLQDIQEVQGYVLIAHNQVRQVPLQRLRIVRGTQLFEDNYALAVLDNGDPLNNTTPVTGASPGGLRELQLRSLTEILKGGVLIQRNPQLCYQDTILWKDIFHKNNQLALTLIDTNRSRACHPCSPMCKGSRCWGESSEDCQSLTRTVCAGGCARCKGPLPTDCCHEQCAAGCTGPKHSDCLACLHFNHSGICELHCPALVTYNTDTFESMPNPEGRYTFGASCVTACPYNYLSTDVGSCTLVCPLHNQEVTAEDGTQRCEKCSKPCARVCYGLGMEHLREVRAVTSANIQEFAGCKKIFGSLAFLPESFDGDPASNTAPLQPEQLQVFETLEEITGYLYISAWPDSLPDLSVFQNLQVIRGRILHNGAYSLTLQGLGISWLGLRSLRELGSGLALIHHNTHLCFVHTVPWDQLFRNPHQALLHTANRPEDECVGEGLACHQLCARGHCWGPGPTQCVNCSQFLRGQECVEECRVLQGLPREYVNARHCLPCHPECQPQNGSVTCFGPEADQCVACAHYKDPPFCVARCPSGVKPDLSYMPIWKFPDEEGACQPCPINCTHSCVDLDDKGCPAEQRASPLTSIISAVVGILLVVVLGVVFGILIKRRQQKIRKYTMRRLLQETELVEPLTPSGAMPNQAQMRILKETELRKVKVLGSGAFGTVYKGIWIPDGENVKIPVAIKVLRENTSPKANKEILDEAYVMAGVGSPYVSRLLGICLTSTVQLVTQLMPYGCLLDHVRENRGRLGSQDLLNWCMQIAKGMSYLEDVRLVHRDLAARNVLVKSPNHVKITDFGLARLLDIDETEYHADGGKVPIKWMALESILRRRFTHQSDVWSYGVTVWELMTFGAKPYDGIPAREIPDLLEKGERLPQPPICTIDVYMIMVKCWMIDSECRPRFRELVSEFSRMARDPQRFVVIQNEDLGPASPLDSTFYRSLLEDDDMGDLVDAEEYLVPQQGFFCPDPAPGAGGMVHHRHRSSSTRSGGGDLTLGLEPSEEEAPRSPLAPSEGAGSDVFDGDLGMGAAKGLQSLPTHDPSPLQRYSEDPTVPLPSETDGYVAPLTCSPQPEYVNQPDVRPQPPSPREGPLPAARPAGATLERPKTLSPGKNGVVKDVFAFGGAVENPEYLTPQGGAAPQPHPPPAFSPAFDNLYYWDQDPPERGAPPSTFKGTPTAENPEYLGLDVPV
row,SMILES,IC50
1,Cc1cc(Nc2ncnc3cnc(N4C[C@H]5COC[C@H]5C4)nc23)ccc1Oc1ccc2c(c1)ncn2C [Example 466],61.3 nM
2,Cc1cc(Nc2ncnc3cnc(N(C)[C@H]4C[C@@H](C(C)(C)O)C4)nc23)ccc1Oc1ccc2c(c1)ncn2C [Example 467],34.5 nM
3,Cc1cc(Nc2ncnc3cnc(N4C[C@@H](O)C(C)(C)C4)nc23)ccc1Oc1ccc2c(c1)ncn2C [Example 468],130 nM
4,Cc1cc(Nc2ncnc3cnc(N4C[C@@H]5C[C@H]4C[C@H]5O)nc23)ccc1Oc1ccc2c(c1)ncn2C [Example 471],49.4 nM
5,Cc1cc(Nc2ncnc3cnc(N4CCC(C)(C#N)C4)nc23)ccc1Oc1ccc2c(c1)ncn2C (centres unmarked) [Example 475],88.6 nM
6,Cc1cc(Nc2ncnc3cnc(N4CCN(CC(F)F)CC4)nc23)ccc1Oc1ccc2c(c1)ncn2C [Example 477],47.1 nM
7,CCN(CC(C)(C)O)c1ncc2ncnc(Nc3ccc(Oc4ccc5c(c4)ncn5C)c(C)c3)c2n1 [Example 478],41.6 nM
8,CN(CCC(C)(C)O)c1ncc2ncnc(Nc3ccc(Oc4ccc5c(c4)ncn5C)c(Cl)c3)c2n1 [Example 479],24.4 nM
9,Cn1cnc2cc(Oc3ccc(Nc4ncnc5cnc(N6CCC(C)(O)CC6)nc45)cc3Cl)ccc21 [Example 480],23.3 nM
10,Cc1cc(Nc2ncnc3cnc(N4C[C@H]5C[C@@H]4CO5)nc23)c(F)cc1Oc1ccc2c(c1)ncn2C [Example 481],41.2 nM
11,Cc1cc(Nc2ncnc3cnc(N4CCC(C)(O)CC4)nc23)c(Cl)cc1Oc1ccc2c(c1)ncn2C [Example 482],446 nM
12,CCON1CCN(c2ncc3ncnc(Nc4ccc(Oc5ccc6c(c5)ncn6C)c(C)c4)c3n2)CC1 [Example 483],262 nM
13,Cn1cnc2cc(Oc3ccc(Nc4ncnc5cnc(N6CCN(CC(F)F)CC6)nc45)cc3Cl)ccc21 [Example 484],124 nM

# Molecular target: ErbB2 with Exon 20 YVMA insertion (HER2-YVMA) (Homo sapiens (Human), UniProt P04626, INS775YVMA)
# Sequence (P04626 other isoform, or with tags, fused parts or gaps ins YVMA behind 775): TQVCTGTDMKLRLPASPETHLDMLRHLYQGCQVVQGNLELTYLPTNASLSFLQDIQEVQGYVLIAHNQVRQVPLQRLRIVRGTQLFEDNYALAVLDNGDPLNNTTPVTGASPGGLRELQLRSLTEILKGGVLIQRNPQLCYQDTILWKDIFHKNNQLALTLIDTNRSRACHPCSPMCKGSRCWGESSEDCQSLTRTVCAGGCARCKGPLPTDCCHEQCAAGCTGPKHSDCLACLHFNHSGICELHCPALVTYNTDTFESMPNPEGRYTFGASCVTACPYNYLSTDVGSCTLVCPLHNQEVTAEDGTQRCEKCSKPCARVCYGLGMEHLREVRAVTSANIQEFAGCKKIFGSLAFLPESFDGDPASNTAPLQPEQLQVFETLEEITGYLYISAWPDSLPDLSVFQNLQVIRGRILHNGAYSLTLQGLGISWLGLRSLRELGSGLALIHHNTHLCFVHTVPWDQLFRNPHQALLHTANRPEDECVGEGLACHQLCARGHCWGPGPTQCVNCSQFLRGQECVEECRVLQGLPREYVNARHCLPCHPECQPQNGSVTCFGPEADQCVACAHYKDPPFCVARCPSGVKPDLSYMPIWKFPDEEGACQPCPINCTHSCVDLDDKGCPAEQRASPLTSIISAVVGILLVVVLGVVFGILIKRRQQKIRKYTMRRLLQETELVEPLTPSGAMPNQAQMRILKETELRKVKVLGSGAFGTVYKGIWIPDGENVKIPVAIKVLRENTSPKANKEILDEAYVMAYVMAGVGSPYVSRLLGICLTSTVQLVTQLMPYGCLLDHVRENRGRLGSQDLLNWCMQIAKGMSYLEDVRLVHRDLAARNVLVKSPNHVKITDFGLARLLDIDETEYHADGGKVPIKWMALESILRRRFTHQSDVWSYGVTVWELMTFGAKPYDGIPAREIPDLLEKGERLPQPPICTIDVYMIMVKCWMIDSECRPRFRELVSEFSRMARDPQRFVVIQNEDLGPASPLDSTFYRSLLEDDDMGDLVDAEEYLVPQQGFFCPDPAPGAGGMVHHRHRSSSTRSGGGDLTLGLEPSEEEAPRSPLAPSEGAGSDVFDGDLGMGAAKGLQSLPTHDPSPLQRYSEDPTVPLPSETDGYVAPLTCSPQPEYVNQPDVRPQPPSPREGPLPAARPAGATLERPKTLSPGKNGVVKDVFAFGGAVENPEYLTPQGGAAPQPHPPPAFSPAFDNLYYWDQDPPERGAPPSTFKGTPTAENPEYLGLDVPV
# Experiment: Cellular phosphorylation assay, constitutive ErbB2 phosphorylation (Y1196) in engineered NIH 3T3 cells, Assay 4
# Format: cell-based
# Settings: not given
# Method in brief: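 Engineered NIH 3T3 cells expressing HER2-YVMA treated with compounds 1 h at 37 °C, then formaldehyde-fixed and methanol-permeabilized. pErbB2 Y1196 detected by in-cell infrared immunofluorescence, normalized to GAPDH. IC50 from the normalized curves.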
row,SMILES,IC50
1,Cc1cc(Nc2ncnc3cnc(N4C[C@H]5COC[C@H]5C4)nc23)ccc1Oc1ccc2c(c1)ncn2C [Example 466],16.2 nM
2,Cc1cc(Nc2ncnc3cnc(N(C)[C@H]4C[C@@H](C(C)(C)O)C4)nc23)ccc1Oc1ccc2c(c1)ncn2C [Example 467],19.4 nM
3,Cc1cc(Nc2ncnc3cnc(N4C[C@@H](O)C(C)(C)C4)nc23)ccc1Oc1ccc2c(c1)ncn2C [Example 468],87.2 nM
4,Cc1cc(Nc2ncnc3cnc(N4C[C@@H]5C[C@H]4C[C@H]5O)nc23)ccc1Oc1ccc2c(c1)ncn2C [Example 471],42.5 nM
5,Cc1cc(Nc2ncnc3cnc(N4CCC(C)(C#N)C4)nc23)ccc1Oc1ccc2c(c1)ncn2C (centres unmarked) [Example 475],82.6 nM
6,Cc1cc(Nc2ncnc3cnc(N4CCN(CC(F)F)CC4)nc23)ccc1Oc1ccc2c(c1)ncn2C [Example 477],53.3 nM
7,CCN(CC(C)(C)O)c1ncc2ncnc(Nc3ccc(Oc4ccc5c(c4)ncn5C)c(C)c3)c2n1 [Example 478],109 nM
8,CN(CCC(C)(C)O)c1ncc2ncnc(Nc3ccc(Oc4ccc5c(c4)ncn5C)c(Cl)c3)c2n1 [Example 479],12.9 nM
9,Cn1cnc2cc(Oc3ccc(Nc4ncnc5cnc(N6CCC(C)(O)CC6)nc45)cc3Cl)ccc21 [Example 480],4.4 nM
10,Cc1cc(Nc2ncnc3cnc(N4C[C@H]5C[C@@H]4CO5)nc23)c(F)cc1Oc1ccc2c(c1)ncn2C [Example 481],74.2 nM
11,Cc1cc(Nc2ncnc3cnc(N4CCC(C)(O)CC4)nc23)c(Cl)cc1Oc1ccc2c(c1)ncn2C [Example 482],229 nM
12,CCON1CCN(c2ncc3ncnc(Nc4ccc(Oc5ccc6c(c5)ncn6C)c(C)c4)c3n2)CC1 [Example 483],58.6 nM
13,Cn1cnc2cc(Oc3ccc(Nc4ncnc5cnc(N6CCN(CC(F)F)CC6)nc45)cc3Cl)ccc21 [Example 484],22.7 nM

# Molecular target: EGFR (Homo sapiens (Human), UniProt P00533)
# Sequence (P00533 25-1210): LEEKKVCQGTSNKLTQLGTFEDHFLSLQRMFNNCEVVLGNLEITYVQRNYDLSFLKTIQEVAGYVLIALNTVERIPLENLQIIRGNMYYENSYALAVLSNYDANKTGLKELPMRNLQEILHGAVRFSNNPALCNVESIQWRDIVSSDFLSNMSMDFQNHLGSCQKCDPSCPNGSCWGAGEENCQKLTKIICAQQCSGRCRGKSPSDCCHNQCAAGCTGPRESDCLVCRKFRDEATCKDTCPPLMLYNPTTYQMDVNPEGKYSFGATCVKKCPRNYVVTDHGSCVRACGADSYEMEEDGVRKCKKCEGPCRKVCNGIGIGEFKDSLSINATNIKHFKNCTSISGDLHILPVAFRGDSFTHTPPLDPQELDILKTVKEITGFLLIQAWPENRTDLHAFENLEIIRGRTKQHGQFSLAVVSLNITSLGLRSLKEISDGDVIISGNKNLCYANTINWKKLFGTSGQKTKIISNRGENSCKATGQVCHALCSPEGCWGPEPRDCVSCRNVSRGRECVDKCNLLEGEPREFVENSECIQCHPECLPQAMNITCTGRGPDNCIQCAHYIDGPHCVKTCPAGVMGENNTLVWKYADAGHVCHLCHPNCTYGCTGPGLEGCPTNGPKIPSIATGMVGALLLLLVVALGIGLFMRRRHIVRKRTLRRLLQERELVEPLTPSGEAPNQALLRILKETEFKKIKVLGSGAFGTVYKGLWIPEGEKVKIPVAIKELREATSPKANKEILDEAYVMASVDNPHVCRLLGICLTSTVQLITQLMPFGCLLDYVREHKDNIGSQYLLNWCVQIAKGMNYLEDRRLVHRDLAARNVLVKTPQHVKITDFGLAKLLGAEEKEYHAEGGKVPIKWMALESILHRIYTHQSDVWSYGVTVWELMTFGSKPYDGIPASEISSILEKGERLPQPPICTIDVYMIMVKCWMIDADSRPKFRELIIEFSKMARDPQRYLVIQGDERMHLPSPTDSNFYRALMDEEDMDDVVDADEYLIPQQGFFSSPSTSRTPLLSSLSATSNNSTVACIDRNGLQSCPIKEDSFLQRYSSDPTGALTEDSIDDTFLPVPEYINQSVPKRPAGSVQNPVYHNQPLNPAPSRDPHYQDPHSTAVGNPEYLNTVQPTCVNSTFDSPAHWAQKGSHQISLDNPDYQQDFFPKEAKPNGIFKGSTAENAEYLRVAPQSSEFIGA
# Experiment: ErbB enzyme assay (CisBio HTRF KinEASE-TK), Assay 3
# Format: biochemical
# Settings: not given
# Method in brief: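 HTRF KinEASE-TK assay: kinase with 250 nM biotinylated TK-substrate and 1 mM ATP in 25 mM HEPES pH 7.4, 10 mM MgCl2, 0.01% Triton X-100, 2% DMSO, 30 min at 22 °C. Quenched with Sa-XL665/TK-Ab-Cryptate, read after 1 h. IC50 from 4-parameter fit of percent of control.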
row,SMILES,IC50
1,Cc1cc(Nc2ncnc3cnc(N4C[C@H]5COC[C@H]5C4)nc23)ccc1Oc1ccc2c(c1)ncn2C [Example 466],≥ 10000 nM
2,Cc1cc(Nc2ncnc3cnc(N(C)[C@H]4C[C@@H](C(C)(C)O)C4)nc23)ccc1Oc1ccc2c(c1)ncn2C [Example 467],4790 nM
3,Cc1cc(Nc2ncnc3cnc(N4C[C@@H](O)C(C)(C)C4)nc23)ccc1Oc1ccc2c(c1)ncn2C [Example 468],≥ 10000 nM
4,Cc1cc(Nc2ncnc3cnc(N4C[C@@H]5C[C@H]4C[C@H]5O)nc23)ccc1Oc1ccc2c(c1)ncn2C [Example 471],≥ 10000 nM
5,Cc1cc(Nc2ncnc3cnc(N4CCC(C)(C#N)C4)nc23)ccc1Oc1ccc2c(c1)ncn2C (centres unmarked) [Example 475],≥ 10000 nM
6,Cc1cc(Nc2ncnc3cnc(N4CCN(CC(F)F)CC4)nc23)ccc1Oc1ccc2c(c1)ncn2C [Example 477],≥ 10000 nM
7,CCN(CC(C)(C)O)c1ncc2ncnc(Nc3ccc(Oc4ccc5c(c4)ncn5C)c(C)c3)c2n1 [Example 478],≥ 10000 nM
8,CN(CCC(C)(C)O)c1ncc2ncnc(Nc3ccc(Oc4ccc5c(c4)ncn5C)c(Cl)c3)c2n1 [Example 479],2210 nM
9,Cn1cnc2cc(Oc3ccc(Nc4ncnc5cnc(N6CCC(C)(O)CC6)nc45)cc3Cl)ccc21 [Example 480],5040 nM
10,Cc1cc(Nc2ncnc3cnc(N4C[C@H]5C[C@@H]4CO5)nc23)c(F)cc1Oc1ccc2c(c1)ncn2C [Example 481],≥ 10000 nM
11,Cc1cc(Nc2ncnc3cnc(N4CCC(C)(O)CC4)nc23)c(Cl)cc1Oc1ccc2c(c1)ncn2C [Example 482],≥ 10000 nM
12,CCON1CCN(c2ncc3ncnc(Nc4ccc(Oc5ccc6c(c5)ncn6C)c(C)c4)c3n2)CC1 [Example 483],≥ 10000 nM
13,Cn1cnc2cc(Oc3ccc(Nc4ncnc5cnc(N6CCN(CC(F)F)CC6)nc45)cc3Cl)ccc21 [Example 484],≥ 10000 nM

# Molecular target: ErbB2 insYVMA (HER2-YVMA, SEQ ID NO: 2) (Homo sapiens, UniProt P04626, INS775YVMA/P1170A)
# Experiment: biochemical
# Settings: ErbB2 insYVMA enzyme assay; read-out: Assay 1 IC50
row,SMILES,IC50
1,Cc1cc(Nc2ncnc3cnc(N4C[C@H]5COC[C@H]5C4)nc23)ccc1Oc1ccc2c(c1)ncn2C [Example 466],24.1 nM
2,Cc1cc(Nc2ncnc3cnc(N(C)[C@H]4C[C@@H](C(C)(C)O)C4)nc23)ccc1Oc1ccc2c(c1)ncn2C [Example 467],26.4 nM
3,Cc1cc(Nc2ncnc3cnc(N4C[C@@H](O)C(C)(C)C4)nc23)ccc1Oc1ccc2c(c1)ncn2C [Example 468],39.1 nM
4,Cc1cc(Nc2ncnc3cnc(N4C[C@@H]5C[C@H]4C[C@H]5O)nc23)ccc1Oc1ccc2c(c1)ncn2C [Example 471],7.1 nM
5,Cc1cc(Nc2ncnc3cnc(N4CCC(C)(C#N)C4)nc23)ccc1Oc1ccc2c(c1)ncn2C (centres unmarked) [Example 475],22.4 nM
6,Cc1cc(Nc2ncnc3cnc(N4CCN(CC(F)F)CC4)nc23)ccc1Oc1ccc2c(c1)ncn2C [Example 477],59.6 nM
7,CCN(CC(C)(C)O)c1ncc2ncnc(Nc3ccc(Oc4ccc5c(c4)ncn5C)c(C)c3)c2n1 [Example 478],27.9 nM
8,CN(CCC(C)(C)O)c1ncc2ncnc(Nc3ccc(Oc4ccc5c(c4)ncn5C)c(Cl)c3)c2n1 [Example 479],26.5 nM
9,Cn1cnc2cc(Oc3ccc(Nc4ncnc5cnc(N6CCC(C)(O)CC6)nc45)cc3Cl)ccc21 [Example 480],18.1 nM
10,Cc1cc(Nc2ncnc3cnc(N4C[C@H]5C[C@@H]4CO5)nc23)c(F)cc1Oc1ccc2c(c1)ncn2C [Example 481],29.4 nM
11,Cc1cc(Nc2ncnc3cnc(N4CCC(C)(O)CC4)nc23)c(Cl)cc1Oc1ccc2c(c1)ncn2C [Example 482],76.7 nM
12,CCON1CCN(c2ncc3ncnc(Nc4ccc(Oc5ccc6c(c5)ncn6C)c(C)c4)c3n2)CC1 [Example 483],76.5 nM
13,Cn1cnc2cc(Oc3ccc(Nc4ncnc5cnc(N6CCN(CC(F)F)CC6)nc45)cc3Cl)ccc21 [Example 484],34.4 nM

# Molecular target: EGFR wild type (EGFR WT) (Homo sapiens (Human), UniProt P00533)
# Sequence (P00533 25-1210): as above
# Experiment: Cellular phosphorylation assay, EGF-stimulated EGFR phosphorylation in engineered NIH 3T3 cells, Phospho-EGFR DuoSet IC ELISA, Assay 5
# Format: cell-based
# Settings: not given
# Method in brief: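 NIH 3T3 cells expressing EGFR WT (20,000/well, attached overnight) were exposed to serially diluted compound for 1 h at 37 °C, then stimulated with 100 ng/ml rEGF for 10 min. Phospho-EGFR in lysates measured by sandwich ELISA optical density; IC50 from curves.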
row,SMILES,IC50
1,Cc1cc(Nc2ncnc3cnc(N4C[C@H]5COC[C@H]5C4)nc23)ccc1Oc1ccc2c(c1)ncn2C [Example 466],≥ 5000 nM
2,Cc1cc(Nc2ncnc3cnc(N(C)[C@H]4C[C@@H](C(C)(C)O)C4)nc23)ccc1Oc1ccc2c(c1)ncn2C [Example 467],≥ 5000 nM
3,Cc1cc(Nc2ncnc3cnc(N4C[C@@H](O)C(C)(C)C4)nc23)ccc1Oc1ccc2c(c1)ncn2C [Example 468],≥ 5000 nM
4,Cc1cc(Nc2ncnc3cnc(N4C[C@@H]5C[C@H]4C[C@H]5O)nc23)ccc1Oc1ccc2c(c1)ncn2C [Example 471],≥ 5000 nM
5,Cc1cc(Nc2ncnc3cnc(N4CCC(C)(C#N)C4)nc23)ccc1Oc1ccc2c(c1)ncn2C (centres unmarked) [Example 475],≥ 5000 nM
6,Cc1cc(Nc2ncnc3cnc(N4CCN(CC(F)F)CC4)nc23)ccc1Oc1ccc2c(c1)ncn2C [Example 477],≥ 5000 nM
7,CCN(CC(C)(C)O)c1ncc2ncnc(Nc3ccc(Oc4ccc5c(c4)ncn5C)c(C)c3)c2n1 [Example 478],≥ 5000 nM
8,CN(CCC(C)(C)O)c1ncc2ncnc(Nc3ccc(Oc4ccc5c(c4)ncn5C)c(Cl)c3)c2n1 [Example 479],≥ 5000 nM
9,Cn1cnc2cc(Oc3ccc(Nc4ncnc5cnc(N6CCC(C)(O)CC6)nc45)cc3Cl)ccc21 [Example 480],≥ 5000 nM
10,Cc1cc(Nc2ncnc3cnc(N4C[C@H]5C[C@@H]4CO5)nc23)c(F)cc1Oc1ccc2c(c1)ncn2C [Example 481],≥ 5000 nM
11,Cc1cc(Nc2ncnc3cnc(N4CCC(C)(O)CC4)nc23)c(Cl)cc1Oc1ccc2c(c1)ncn2C [Example 482],≥ 5000 nM
12,CCON1CCN(c2ncc3ncnc(Nc4ccc(Oc5ccc6c(c5)ncn6C)c(C)c4)c3n2)CC1 [Example 483],≥ 5000 nM
13,Cn1cnc2cc(Oc3ccc(Nc4ncnc5cnc(N6CCN(CC(F)F)CC6)nc45)cc3Cl)ccc21 [Example 484],≥ 5000 nM

# Source: patent US11834453B2, “Substituted pyrimido[5,4-d]pyrimidines as HER2 inhibitors” (Array BioPharma Inc., priority 2020, dated 2023)
